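Protocol summary: plate cells (96-well), add compound at 5 concentrations, incubate 48 h, interpolate endpoints linearly. Abbreviation: GI50, concentration required for 50% inhibition of growth.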 Active and inactive are the calls of the source. Cut-off read from the data, not from the text of the source: active = GI50 up to about 1.1 µM and inactive = higher.
Columns and labels:
Test in all cases: growth of human tumour cells (NCI), 48 h
[1] = test system: HCT-15
[2] = test system: RPMI-8226
[3] = test system: PC-3
[4] = test system: Malme-3M
[5] = test system: DU-145
[6] = test system: U-251
[7] = test system: HCT-116
[8] = test system: MOLT-4
[9] = test system: OVCAR-8
[10] = test system: SW-620
[11] = test system: KM12
[12] = test system: SNB-19
[13] = test system: Hs-578T
[14] = test system: NCI/ADR-RES
[15] = test system: NCI-H226
[16] = test system: COLO 205
[17] = test system: HT-29
[18] = test system: HL-60
[19] = test system: HOP-62

Measured: GI50

CC(C)CCCC(C)[C@H]1CC[C@H]2NCCCC[C@]12C (stereo not given in full)
inactive: [2] 1.92 µM | [3] 3.07 µM | [4] 4.61 µM | [5] 5.56 µM | [6] 2.4 µM | [7] 3.03 µM | [8] 2.28 µM | [9] 3.03 µM | [10] 2.61 µM | [11] 2.68 µM | [12] 5.36 µM | [13] 6.82 µM | [14] 6.71 µM | [15] 9.14 µM | [16] 1.73 µM | [17] 2.34 µM | [18] 1.93 µM | [19] 9.08 µM
2.43 µM: [1]

CCOC(=O)CC/C(=N/Nc1ccc(Cl)cc1[N+](=O)[O-])C(=O)OCC
inactive: [2] > 100 µM | [3] > 100 µM | [4] > 100 µM | [5] > 100 µM | [6] > 100 µM | [7] > 100 µM | [8] > 100 µM | [9] > 100 µM | [10] > 100 µM | [11] > 100 µM | [12] > 100 µM | [13] > 100 µM | [14] > 100 µM | [15] > 100 µM | [16] > 100 µM | [17] > 100 µM | [18] > 100 µM | [19] > 100 µM
> 100 µM: [1]

COC(=O)C(CCSC)NC(=O)CSc1nnc(COc2ccc(Cl)cc2)n1-c1ccccc1 (stereo not given)
inactive: [3] 18.9 µM | [4] 21.3 µM | [5] 18.2 µM | [6] 17.1 µM | [7] 16.6 µM | [8] 13.9 µM | [9] 18.6 µM | [10] 21.7 µM | [11] 18.2 µM | [12] 23.5 µM | [13] 21.4 µM | [14] 17.6 µM | [15] 21.4 µM | [16] 18.3 µM | [17] 18.3 µM | [18] 18.3 µM | [19] 3.08 µM
18.6 µM: [1]
active: [2] 0.883 µM

CCOP(=O)(OCC)c1c(C(=O)OC)cc(=O)[nH]c1-c1ccc(C)cc1
inactive: [2] 5.27 µM | [3] 16.7 µM | [4] 6.1 µM | [5] 12.9 µM | [6] 13.1 µM | [7] 13.8 µM | [8] 4.57 µM | [9] 17.7 µM | [10] 5.75 µM | [11] 16 µM | [12] 21.6 µM | [13] 17.9 µM | [14] 19.5 µM | [15] 9.31 µM | [16] 6.5 µM | [17] 14.4 µM | [18] 1.23 µM | [19] 18.5 µM
9.73 µM: [1]

CCN(CC)Cc1ccccc1CC(=O)N1c2ccccc2C(=O)Nc2cccnc21
> 100 µM: [1]
inactive: [2] > 100 µM | [3] > 100 µM | [4] > 100 µM | [5] > 100 µM | [6] > 100 µM | [7] 38.8 µM | [8] 46.7 µM | [9] > 100 µM | [10] > 100 µM | [11] > 100 µM | [12] > 100 µM | [13] > 100 µM | [14] 59.6 µM | [15] > 100 µM | [16] 86.1 µM | [17] > 100 µM | [18] 46 µM | [19] 64 µM

CC/C(N)=N\NC(=O)OC(C)(C)C
> 100 µM: [1]
inactive: [2] > 100 µM | [3] > 100 µM | [4] > 100 µM | [5] > 100 µM | [6] > 100 µM | [7] > 100 µM | [8] > 100 µM | [9] > 100 µM | [10] > 100 µM | [11] > 100 µM | [12] > 100 µM | [13] > 100 µM | [14] > 100 µM | [15] > 100 µM | [16] > 100 µM | [17] > 100 µM | [18] > 100 µM | [19] > 100 µM

CCCC(=O)NC(Nc1ccc(S(=O)(=O)Nc2ccc(OC)nn2)cc1)(C(F)(F)F)C(F)(F)F
inactive: [2] > 100 µM | [3] > 100 µM | [4] > 100 µM | [5] > 100 µM | [6] > 100 µM | [7] > 100 µM | [8] > 100 µM | [9] > 100 µM | [10] > 100 µM | [11] > 100 µM | [12] > 100 µM | [13] > 100 µM | [14] > 100 µM | [15] > 100 µM | [16] > 100 µM | [17] > 100 µM | [18] > 100 µM | [19] > 100 µM
> 100 µM: [1]

COC(=O)Cc1ccc2c(c1)Sc1ccc(CC(=O)OC)cc1N2C
inactive: [2] 39.1 µM | [3] 25.8 µM | [4] 23.8 µM | [5] > 71.6 µM | [6] 19.4 µM | [7] 24.1 µM | [8] 9.66 µM | [9] 34.3 µM | [10] 39.1 µM | [11] 8.07 µM | [12] 44 µM | [13] 39.3 µM | [14] 16.3 µM | [15] 49.5 µM | [16] 18.2 µM | [17] 10.8 µM | [18] 20.7 µM | [19] 27.4 µM
14.7 µM: [1]

COc1cc(C2c3cc4c(cc3OC(NNc3ccccc3)C2C)OCO4)cc(OC)c1OC (stereo not given)
inactive: [2] 1.43 µM | [5] 2.11 µM | [6] 1.12 µM | [9] 2.81 µM | [10] 1.4 µM | [12] 1.32 µM | [13] 2.96 µM | [15] 1.92 µM | [16] 1.46 µM | [18] 1.58 µM
0.417 µM: [1]
active: [3] 0.778 µM | [4] 0.935 µM | [7] 1.03 µM | [8] 1.09 µM | [11] 0.395 µM | [14] 0.597 µM | [17] 0.986 µM | [19] 0.923 µM

CC(=O)NC(=N/N=C1/C(=O)Nc2ccc(C)cc21)NC(C)=O
inactive: [2] > 100 µM | [3] > 100 µM | [4] > 100 µM | [5] > 100 µM | [6] > 100 µM | [7] > 100 µM | [8] > 100 µM | [9] > 100 µM | [10] > 100 µM | [11] > 100 µM | [12] > 100 µM | [13] > 100 µM | [14] > 100 µM | [15] 98.2 µM | [16] > 100 µM | [17] > 100 µM | [18] > 100 µM | [19] > 100 µM
> 100 µM: [1]

N=c1c2c(=S)n(-c3ccccc3)c(=S)n(-c3ccccc3)c2nc(SCCN2CCOCC2)n1-c1ccccc1
inactive: [3] 1.85 µM | [4] 1.66 µM | [5] 1.83 µM | [6] 1.99 µM | [7] 1.85 µM | [8] 1.46 µM | [9] 2.06 µM | [10] 1.91 µM | [11] 2.44 µM | [12] 10.4 µM | [13] 2.67 µM | [14] 3.67 µM | [15] 7.13 µM | [16] 1.99 µM | [17] 2.05 µM | [18] 1.41 µM | [19] 2.12 µM
active: [2] 1.04 µM
1.91 µM: [1]

COc1ccc(C2c3cc4c(cc3OC3(OC)COC(=O)C23)OCO4)c(OC)c1 (stereo not given)
5.19 µM: [1]
inactive: [2] 3.56 µM | [3] 17.7 µM | [4] 8.63 µM | [5] 31.9 µM | [6] 7.35 µM | [7] 5.33 µM | [8] 4.91 µM | [9] 9.84 µM | [10] 6.43 µM | [11] 3.43 µM | [12] 14.2 µM | [13] 3.78 µM | [14] 3.23 µM | [15] 25.1 µM | [16] 5.62 µM | [17] 3.4 µM | [18] 2.32 µM | [19] 8.39 µM

Cc1nn(C(=O)c2ccccc2O)c2c1C(c1ccccc1)SC(=N)N2 (stereo not given)
3.86 µM: [1]
inactive: [2] 2.97 µM | [3] 4.57 µM | [6] 2.11 µM | [8] 2.75 µM | [10] 3.58 µM | [11] 3.53 µM | [12] 6.38 µM | [14] 1.56 µM | [15] 1.16 µM | [16] 3.87 µM | [17] 5.38 µM | [18] 1.61 µM | [19] 2.64 µM
active: [4] 0.479 µM | [5] 0.627 µM | [7] 0.906 µM | [9] 0.867 µM | [13] 0.7 µM

COc1ccc(C(C)NNC(=O)c2cc[n+]([BH2-]C#N)cc2)cc1F (stereo not given)
inactive: [2] > 100 µM | [3] > 100 µM | [4] > 100 µM | [5] > 100 µM | [6] > 100 µM | [7] > 100 µM | [8] > 100 µM | [9] > 100 µM | [10] > 100 µM | [11] > 100 µM | [12] > 100 µM | [13] > 100 µM | [14] > 100 µM | [15] > 100 µM | [16] > 100 µM | [17] > 100 µM | [18] > 100 µM | [19] > 100 µM
> 100 µM: [1]

COc1cc(-c2c3c(cc4c2OCO4)[C@@H](Nc2ccc4c(c2)Cc2cc(N[C@@H]5c6cc7c(cc6C(c6cc(OC)c(O)c(OC)c6)[C@H]6C(=O)OC[C@H]56)OCO7)ccc2-4)[C@H]2COC(=O)[C@@H]2C3)cc(OC)c1O (stereo not given in full)
43.8 µM: [1]
inactive: [2] > 100 µM | [3] 10.9 µM | [4] 14.8 µM | [5] 26.3 µM | [6] 26.7 µM | [7] 21.8 µM | [8] > 100 µM | [9] 40.6 µM | [10] 49.8 µM | [11] 26.5 µM | [12] 36 µM | [13] > 100 µM | [14] 15.2 µM | [15] 43.5 µM | [16] 15.3 µM | [17] 20 µM | [18] > 100 µM | [19] 18.5 µM

Source: ChEMBL document CHEMBL1201862, “PubChem BioAssay data set” (2004)
